Measurements: patent US20240368135A1 (VERTEX PHARMACEUTICALS INCORPORATED, priority 2021, published 2024)
pIC50: −log10 of the molar value.

Biological target: human NaV 1.8 (Homo sapiens, UniProt Q9Y5Y9)
Test: E-VIPR assay detecting and measuring NaV inhibition properties
Format: cell-based
Details: HEK cells expressing truncated human NaV 1.8; no human serum; read-out: IC50 in the E-VIPR Assay
Summary of the method: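 Membrane potential was followed by coumarin/oxonol FRET during electrical field stimulation of matrigel-seeded HEK cells carrying truncated human NaV1.8 plus KIR2.1. Dosing used 11 points, 3-fold steps, top 300 nM final, 0.625% DMSO, with or without 25% human serum.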

human NaV 1.8, sequence (Q9Y5Y9 126-399 limits assumed): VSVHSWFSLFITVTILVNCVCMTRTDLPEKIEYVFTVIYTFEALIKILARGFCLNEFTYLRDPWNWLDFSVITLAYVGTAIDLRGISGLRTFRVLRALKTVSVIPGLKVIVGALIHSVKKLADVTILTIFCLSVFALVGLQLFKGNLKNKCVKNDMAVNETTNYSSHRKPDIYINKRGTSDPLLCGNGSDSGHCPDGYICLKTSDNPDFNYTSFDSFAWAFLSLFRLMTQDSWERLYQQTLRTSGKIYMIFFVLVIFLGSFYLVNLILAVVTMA
human NaV 1.8, sequence (Q9Y5Y9 660-890 limits assumed): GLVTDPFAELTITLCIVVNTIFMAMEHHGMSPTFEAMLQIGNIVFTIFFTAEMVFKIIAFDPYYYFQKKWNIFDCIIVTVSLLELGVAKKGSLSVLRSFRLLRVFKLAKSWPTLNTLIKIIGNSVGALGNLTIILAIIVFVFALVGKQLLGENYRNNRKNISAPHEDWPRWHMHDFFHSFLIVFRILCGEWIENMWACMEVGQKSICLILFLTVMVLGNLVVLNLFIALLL
human NaV 1.8, sequence (Q9Y5Y9 1148-1722 limits assumed): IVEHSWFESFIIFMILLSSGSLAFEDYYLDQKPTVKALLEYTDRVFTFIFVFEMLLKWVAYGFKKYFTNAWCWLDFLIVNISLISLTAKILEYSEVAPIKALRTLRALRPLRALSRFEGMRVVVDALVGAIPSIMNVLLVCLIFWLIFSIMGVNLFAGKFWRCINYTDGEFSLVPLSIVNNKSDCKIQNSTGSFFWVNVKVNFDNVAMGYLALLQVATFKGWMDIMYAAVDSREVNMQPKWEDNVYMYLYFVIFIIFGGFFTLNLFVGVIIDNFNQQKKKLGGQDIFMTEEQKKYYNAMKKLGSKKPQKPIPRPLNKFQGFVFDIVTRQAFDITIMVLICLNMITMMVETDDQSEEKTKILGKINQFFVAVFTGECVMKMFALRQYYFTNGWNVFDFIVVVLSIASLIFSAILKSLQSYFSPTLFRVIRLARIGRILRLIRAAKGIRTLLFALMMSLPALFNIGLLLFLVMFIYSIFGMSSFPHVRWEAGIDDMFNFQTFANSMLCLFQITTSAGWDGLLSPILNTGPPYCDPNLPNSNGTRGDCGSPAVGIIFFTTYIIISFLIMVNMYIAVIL

Structure (SMILES) | pIC50
COc1c([C@H]2[C@H](C(=O)Nc3ccnc(N4C(=O)CN5CCC4CC5)c3)O[C@@](C)(C(F)(F)F)[C@H]2C)ccc(F)c1F [Compound 468, (2R,3S,4S,5R)-3-(3,4-difluoro-2-methoxyphenyl)-4,5-dimethyl-N-(2-(3-oxo-1,4-diazabicyclo[3.2.2]nonan-4-yl)pyridin-4-yl)-5-(trifluoromethyl)tetrahydrofuran-2-carboxamide] | 7.00 to 8.00
COc1c([C@H]2[C@H](C(=O)Nc3ccnc(N4C(=O)CN(C)C[C@@H]4C)c3)O[C@@](C)(C(F)(F)F)[C@H]2C)ccc(F)c1F [Compound 469, (2R,3S,4S,5R)-3-(3,4-difluoro-2-methoxyphenyl)-N-(2-((S)-2,4-dimethyl-6-oxopiperazin-1-yl)pyridin-4-yl)-4,5-dimethyl-5-(trifluoromethyl)tetrahydrofuran-2-carboxamide] | > 8.00
COc1c([C@H]2[C@H](C(=O)Nc3ccnc(N4C[C@@H](C)N(C)CC4=O)c3)O[C@@](C)(C(F)(F)F)[C@H]2C)ccc(F)c1F [Compound 470, (2R,3S,4S,5R)-3-(3,4-difluoro-2-methoxyphenyl)-N-(2-((R)-4,5-dimethyl-2-oxopiperazin-1-yl)pyridin-4-yl)-4,5-dimethyl-5-(trifluoromethyl)tetrahydrofuran-2-carboxamide] | > 8.00
COc1c([C@H]2[C@H](C(=O)Nc3ccnc(N4CC[C@@H](O)C4=O)c3)O[C@@](C)(C(F)(F)F)[C@H]2C)ccc(F)c1F [Compound 471, (2R,3S,4S,5R)-3-(3,4-difluoro-2-methoxyphenyl)-N-(2-((R)-3-hydroxy-2-oxopyrrolidin-1-yl)pyridin-4-yl)-4,5-dimethyl-5-(trifluoromethyl)tetrahydrofuran-2-carboxamide] | 7.00 to 8.00
COc1c([C@H]2[C@H](C(=O)Nc3ccnc(NC(=O)CN(C)C)c3)O[C@@](C)(C(F)(F)F)[C@H]2C)ccc(F)c1F [Compound 472, (2R,3S,4S,5R)-3-(3,4-difluoro-2-methoxyphenyl)-N-(2-(2-(dimethylamino)acetamido)pyridin-4-yl)-4,5-dimethyl-5-(trifluoromethyl)tetrahydrofuran-2-carboxamide] | 7.00 to 8.00
COc1c([C@H]2[C@H](C(=O)Nc3ccnc(N4CC[C@H](O)C4=O)c3)O[C@@](C)(C(F)(F)F)[C@H]2C)ccc(F)c1F [Compound 473, (2R,3S,4S,5R)-3-(3,4-difluoro-2-methoxyphenyl)-N-(2-((S)-3-hydroxy-2-oxopyrrolidin-1-yl)pyridin-4-yl)-4,5-dimethyl-5-(trifluoromethyl)tetrahydrofuran-2-carboxamide] | 7.00 to 8.00
COc1c([C@H]2[C@H](C(=O)Nc3ccnc(N4C[C@H](C)N(C)CC4=O)c3)O[C@@](C)(C(F)(F)F)[C@H]2C)ccc(F)c1F [Compound 474, (2R,3S,4S,5R)-3-(3,4-difluoro-2-methoxyphenyl)-N-(2-((S)-4,5-dimethyl-2-oxopiperazin-1-yl)pyridin-4-yl)-4,5-dimethyl-5-(trifluoromethyl)tetrahydrofuran-2-carboxamide] | > 8.00
COc1c([C@H]2[C@H](C(=O)Nc3ccnc(N4CCN(C)[C@H](C)C4=O)c3)O[C@@](C)(C(F)(F)F)[C@H]2C)ccc(F)c1F [Compound 475, (2R,3S,4S,5R)-3-(3,4-difluoro-2-methoxyphenyl)-N-(2-((R)-3,4-dimethyl-2-oxopiperazin-1-yl)pyridin-4-yl)-4,5-dimethyl-5-(trifluoromethyl)tetrahydrofuran-2-carboxamide] | 7.00 to 8.00
COc1c([C@H]2[C@H](C(=O)Nc3ccnc(N4CCN(C)[C@@H](C)C4=O)c3)O[C@@](C)(C(F)(F)F)[C@H]2C)ccc(F)c1F [Compound 476, (2R,3S,4S,5R)-3-(3,4-difluoro-2-methoxyphenyl)-N-(2-((S)-3,4-dimethyl-2-oxopiperazin-1-yl)pyridin-4-yl)-4,5-dimethyl-5-(trifluoromethyl)tetrahydrofuran-2-carboxamide] | 7.00 to 8.00
COc1c([C@H]2[C@H](C(=O)Nc3ccnc(N4C(=O)CNC[C@H]4C)c3)O[C@@](C)(C(F)(F)F)[C@H]2C)ccc(F)c1F [Compound 477, (2R,3S,4S,5R)-3-(3,4-difluoro-2-methoxyphenyl)-4,5-dimethyl-N-(2-((R)-2-methyl-6-oxopiperazin-1-yl)pyridin-4-yl)-5-(trifluoromethyl)tetrahydrofuran-2-carboxamide] | 7.00 to 8.00
COc1c([C@H]2[C@H](C(=O)Nc3ccnc(N4C[C@H](C)NCC4=O)c3)O[C@@](C)(C(F)(F)F)[C@H]2C)ccc(F)c1F [Compound 478, (2R,3S,4S,5R)-3-(3,4-difluoro-2-methoxyphenyl)-4,5-dimethyl-N-(2-((S)-5-methyl-2-oxopiperazin-1-yl)pyridin-4-yl)-5-(trifluoromethyl)tetrahydrofuran-2-carboxamide] | 7.00 to 8.00
COc1c([C@H]2[C@H](C(=O)Nc3ccnc(N4C(=O)CNC[C@@H]4C)c3)O[C@@](C)(C(F)(F)F)[C@H]2C)ccc(F)c1F [Compound 479, (2R,3S,4S,5R)-3-(3,4-difluoro-2-methoxyphenyl)-4,5-dimethyl-N-(2-((S)-2-methyl-6-oxopiperazin-1-yl)pyridin-4-yl)-5-(trifluoromethyl)tetrahydrofuran-2-carboxamide] | 7.00 to 8.00
COc1c([C@H]2[C@H](C(=O)Nc3ccnc(N4C[C@@H](C)NCC4=O)c3)O[C@@](C)(C(F)(F)F)[C@H]2C)ccc(F)c1F [Compound 480, (2R,3S,4S,5R)-3-(3,4-difluoro-2-methoxyphenyl)-4,5-dimethyl-N-(2-((R)-5-methyl-2-oxopiperazin-1-yl)pyridin-4-yl)-5-(trifluoromethyl)tetrahydrofuran-2-carboxamide] | > 8.00
COc1c([C@H]2[C@H](C(=O)Nc3ccnc(N4CCCNCC4=O)c3)O[C@@](C)(C(F)(F)F)[C@H]2C)ccc(F)c1F [Compound 481, (2R,3S,4S,5R)-3-(3,4-difluoro-2-methoxyphenyl)-4,5-dimethyl-N-(2-(2-oxo-1,4-diazepan-1-yl)pyridin-4-yl)-5-(trifluoromethyl)tetrahydrofuran-2-carboxamide] | 7.00 to 8.00
COc1c([C@H]2[C@H](C(=O)Nc3ccnc(N4C(=O)[C@H]5C[C@@H]4CN5)c3)O[C@@](C)(C(F)(F)F)[C@H]2C)ccc(F)c1F [Compound 482, (2R,3S,4S,5R)-3-(3,4-difluoro-2-methoxyphenyl)-4,5-dimethyl-N-(2-((1R,4R)-3-oxo-2,5-diazabicyclo[2.2.1]heptan-2-yl)pyridin-4-yl)-5-(trifluoromethyl)tetrahydrofuran-2-carboxamide] | 7.00 to 8.00
COc1c([C@H]2[C@H](C(=O)Nc3ccnc(N4C(=O)[C@@H]5C[C@H]4CN5)c3)O[C@@](C)(C(F)(F)F)[C@H]2C)ccc(F)c1F [Compound 483, (2R,3S,4S,5R)-3-(3,4-difluoro-2-methoxyphenyl)-4,5-dimethyl-N-(2-((1S,4S)-3-oxo-2,5-diazabicyclo[2.2.1]heptan-2-yl)pyridin-4-yl)-5-(trifluoromethyl)tetrahydrofuran-2-carboxamide] | 7.00 to 8.00
COc1c([C@H]2[C@H](C(=O)Nc3ccnc(N4CCN[C@H](C)C4=O)c3)O[C@@](C)(C(F)(F)F)[C@H]2C)ccc(F)c1F [Compound 484, (2R,3S,4S,5R)-3-(3,4-difluoro-2-methoxyphenyl)-4,5-dimethyl-N-(2-((R)-3-methyl-2-oxopiperazin-1-yl)pyridin-4-yl)-5-(trifluoromethyl)tetrahydrofuran-2-carboxamide] | 7.00 to 8.00
COc1c([C@H]2[C@H](C(=O)Nc3ccnc(N4CCN[C@@H](C)C4=O)c3)O[C@@](C)(C(F)(F)F)[C@H]2C)ccc(F)c1F [Compound 485, (2R,3S,4S,5R)-3-(3,4-difluoro-2-methoxyphenyl)-4,5-dimethyl-N-(2-((S)-3-methyl-2-oxopiperazin-1-yl)pyridin-4-yl)-5-(trifluoromethyl)tetrahydrofuran-2-carboxamide] | > 8.00
CNCC(=O)N(C)c1cc(NC(=O)[C@@H]2O[C@@](C)(C(F)(F)F)[C@@H](C)[C@H]2c2ccc(F)c(F)c2OC)ccn1 [Compound 486, (2R,3S,4S,5R)-3-(3,4-difluoro-2-methoxyphenyl)-4,5-dimethyl-N-(2-(N-methyl-2-(methylamino)acetamido)pyridin-4-yl)-5-(trifluoromethyl)tetrahydrofuran-2-carboxamide] | > 8.00
CNC(=O)CN(C)c1cc(NC(=O)[C@@H]2O[C@@](C)(C(F)(F)F)[C@@H](C)[C@H]2c2ccc(F)c(F)c2OC)ccn1 [Compound 487, (2R,3S,4S,5R)-3-(3,4-difluoro-2-methoxyphenyl)-4,5-dimethyl-N-(2-(methyl(2-(methylamino)-2-oxoethyl)amino)pyridin-4-yl)-5-(trifluoromethyl)tetrahydrofuran-2-carboxamide] | > 8.00
CNCC(=O)Nc1cc(NC(=O)[C@@H]2O[C@@](C)(C(F)(F)F)[C@@H](C)[C@H]2c2ccc(F)c(F)c2OC)ccn1 [Compound 488] | 7.00 to 8.00
COc1c([C@H]2[C@H](C(=O)Nc3ccnc(N4C(=O)[C@@H]5C[C@H]4CN5C)c3)O[C@@](C)(C(F)(F)F)[C@H]2C)ccc(F)c1F [Compound 489, (2R,3S,4S,5R)-3-(3,4-difluoro-2-methoxyphenyl)-4,5-dimethyl-N-(2-((1S,4S)-5-methyl-3-oxo-2,5-diazabicyclo[2.2.1]heptan-2-yl)pyridin-4-yl)-5-(trifluoromethyl)tetrahydrofuran-2-carboxamide] | 7.00 to 8.00
COc1c([C@H]2[C@H](C(=O)Nc3ccnc(N4C(=O)[C@H]5C[C@@H]4CN5C)c3)O[C@@](C)(C(F)(F)F)[C@H]2C)ccc(F)c1F [Compound 490, (2R,3S,4S,5R)-3-(3,4-difluoro-2-methoxyphenyl)-4,5-dimethyl-N-(2-((1R,4R)-5-methyl-3-oxo-2,5-diazabicyclo[2.2.1]heptan-2-yl)pyridin-4-yl)-5-(trifluoromethyl)tetrahydrofuran-2-carboxamide] | 7.00 to 8.00
